Results: patent US10015966B2, “Fungicidal pyrazole mixtures” (E I DU PONT DE NEMOURS AND COMPANY, priority 2012, dated 2018)
Read-outs that look alike come from different tables or passages of the source. Marks after values point to notes of the source that are not given here.

Experiments:
Format in all cases: in vivo
[1] = tested on: Septoria tritici; assay: Test F: preventive spray on wheat seedlings, wheat leaf blotch, visual disease rating; settings: Zymoseptoria tritici, 200 ppm test suspension
Method: General protocol for preparing test suspensions for Tests A-I: the test compounds were first dissolved in acetone in an amount equal to 3% of the final volume and then suspended at the desired concentration (in ppm) in acetone and purified water (50/50 mix by volume) containing 250 ppm of the surfactant Trem® 014 (polyhydric alcohol esters). The resulting test suspensions were then used in Tests A-I. Each test was conducted in triplicate, and the results were averaged. Spraying a 200 ppm test suspension to the point of run-off on the test plants was the equivalent of a rate of about 800 g/ha. Unless otherwise indicated, the rating values indicate a 200 ppm test suspension was used. (An asterisk “*” next to the rating value indicates a 40 ppm test suspension was used.) The test suspension was sprayed to the point of run-off on wheat seedlings. The following day the seedlings were inoculated with a spore suspension of Septoria tritici (the causal agent of wheat leaf blotch) and incubated in saturated atmosphere at 24° C. for 48 h. and then the seedlings were moved to a growth chamber at 20° C. for 19 additional days, after which time visual disease ratings were made. Results for Tests A-I are given in Table A. In the Table, a rating of 100 indicates 100% disease control and a rating of 0 indicates no disease control (relative to the controls). A hyphen (-) indicates no test results.

[2] = tested on: Phytophthora infestans; settings: tomato late blight
[3] = tested on: Rhizoctonia solani; assay: Test D: preventive spray on creeping bent grass seedlings, turf brown patch, disease rating; settings: 200 ppm test suspension
Method: General protocol for preparing test suspensions for Tests A-I: the test compounds were first dissolved in acetone in an amount equal to 3% of the final volume and then suspended at the desired concentration (in ppm) in acetone and purified water (50/50 mix by volume) containing 250 ppm of the surfactant Trem® 014 (polyhydric alcohol esters). The resulting test suspensions were then used in Tests A-I. Each test was conducted in triplicate, and the results were averaged. Spraying a 200 ppm test suspension to the point of run-off on the test plants was the equivalent of a rate of about 800 g/ha. Unless otherwise indicated, the rating values indicate a 200 ppm test suspension was used. (An asterisk “*” next to the rating value indicates a 40 ppm test suspension was used.) The test suspension was sprayed to the point of run-off on creeping bent grass (Agrostis sp.) seedlings. The following day the seedlings were inoculated with a bran and mycelial slurry of Rhizoctonia solani (the causal agent of turf brown patch) and incubated in a saturated atmosphere at 27° C. for 48 h, and then moved to a growth chamber at 27° C. for 3 days, after which time disease ratings were made. Results for Tests A-I are given in Table A. In the Table, a rating of 100 indicates 100% disease control and a rating of 0 indicates no disease control (relative to the controls). A hyphen (-) indicates no test results.

[4] = tested on: Puccinia recondita f. sp. tritici; assay: Test G: curative spray on inoculated wheat seedlings, wheat leaf rust, visual disease rating; settings: 200 ppm test suspension
Method: General protocol for preparing test suspensions for Tests A-I: the test compounds were first dissolved in acetone in an amount equal to 3% of the final volume and then suspended at the desired concentration (in ppm) in acetone and purified water (50/50 mix by volume) containing 250 ppm of the surfactant Trem® 014 (polyhydric alcohol esters). The resulting test suspensions were then used in Tests A-I. Each test was conducted in triplicate, and the results were averaged. Spraying a 200 ppm test suspension to the point of run-off on the test plants was the equivalent of a rate of about 800 g/ha. Unless otherwise indicated, the rating values indicate a 200 ppm test suspension was used. (An asterisk “*” next to the rating value indicates a 40 ppm test suspension was used.) Wheat seedlings were inoculated with a spore suspension of Puccinia recondita f. sp. tritici (the causal agent of wheat leaf rust) and incubated in a saturated atmosphere at 20° C. for 24 h, and then moved to a growth chamber at 20° C. for 2 days. At the end of this time the test suspension was sprayed to the point of run-off, and then the seedlings were moved to a growth chamber at 20° C. for 4 days after which time visual disease ratings were made. […]

[5] = Single oral dose pharmacokinetics in rats, plasma and fat analysed by LC/MS (fat:plasma ratio); settings: single dose via oral gavage, compared to corresponding compounds with a nonhydrogen substituent at the para position of the phenyl ring connected to R^1 and R^2
Method: The pharmacokinetic properties of compounds of Formula 1 can be measured using a wide variety of assay protocols known in the science of pharmacology. In one illustrative method involving a single oral dose, three male and three female rats receive a single dose of a test substance via oral gavage. Approximately 0.25 mL of blood is collected via tail vein immediately prior to dosing, and then at 0.25, 0.5, 1, 2, 4, 8, 12, 24 h and every 24 h thereafter until sacrifice. At sacrifice, fat is also collected to determine the fat:plasma ratio at sacrifice. Blood is collected into tubes that contain ethylenediaminetetracetic acid (EDTA) and centrifuged at 2500×g in order to separate plasma from blood cells. The plasma is then extracted by protein precipitation using, for example, acetonitrile and a protein precipitation plate (e.g., Strata Impact Protein Precipitation Plate, part number CEO-7565 of Phenomenex, Torrance, Calif., U.S.A.) following directions provided for the plate. Alternatively, the plasma is extracted just with acetonitrile, vortexed (i.e. mixed using a vortex mixer), and centrifuged to pellet the proteins. After removal of the proteins, the plasma is analyzed for parent compound and/or metabolites by liquid chromatography-mass spectrometry (LC/MS). The fat is homogenized and extracted by an organic solvent such as acetonitrile. The extract is then analyzed for parent compound and/or metabolites by LC/MS. The plasma pharmacokinetic data is then analyzed using nonlinear modeling software (e.g., WinNonlin™ from Pharsight, Cary, N.C., U.S.A.) to determine half-life of the administered compound in plasma, the time after administration when the maximum plasma concentration is reached (Tmax), the maximum plasma concentration (Cmax) and the area under the plasma concentration curve (AUC). As analysis of fat requires rat sacrifice, fat data is obtained at single time points (i.e. the time of rat sacrifice). However, by using multiple rats sacrificed after different intervals from time of dosing, such parameters as Cmax for fat are determined.

| Compound | pest or weed control at 200 ppm [1] | Test C rating (% disease control) ([2]; 200 ppm test suspension, preventive spray) | Test D rating (% disease control) [3] | Test G rating (% disease control) [4] | Test C rating (% disease control) ([2]; asterisked rating: test suspension other than 200 ppm) | distribution into fat [5] |
| --- | --- | --- | --- | --- | --- | --- |
| Cc1nn(C)c(Nc2ccccc2F)c1-c1ccc(F)cc1Cl [Compound 1, 4-(2-chloro-4-fluorophenyl)-N-(2-fluorophenyl)-1,3-dimethyl-1H-pyrazol-5-amine] | 100% | 0% | 99% | – | – | – |
| Cc1nn(C)c(Nc2c(F)cccc2F)c1-c1ccc(F)cc1Cl [Compound 2, 4-(2-chloro-4-fluorophenyl)-N-(2,6-difluorophenyl)-1,3-dimethyl-1H-pyrazol-5-amine] | 100% | – | – | 0% | – | – |
| Cc1nn(C)c(Nc2c(F)cccc2Cl)c1-c1ccc(F)cc1Cl [Compound 3, 4-(2-chloro-4-fluorophenyl)-N-(2-chloro-6-fluorophenyl)-1,3-dimethyl-1H-pyrazol-5-amine] | 100% | – | – | 100% | 0* % | significantly diminished distribution into fat |
